Laboratory results reported in patent US6479476B1, “19-nor steroids substituted in position 11β, preparation method and intermediates, application as medicines and pharmaceutical compositions containing them” (Aventis Pharma S.A., priority 1997, dated 2002).
Like-named read-outs stand apart in the source and are kept apart here.

How the values were obtained:
[1] = system: human mammary cells MCF-7; assay: Effect on the proliferation of mammary cells (MCF-7, DNA quantitation after 7 days); assay type: cell-based; design: key: The molecules inducing a cellular growth identical to that observed with the solvent alone are classed “inactivated”; Inhibitor: those inducing cellular growth lower than that observed with the solvent are classed “inhibitor”; *Mixed: slight agonist activity in very weak concentrations and inhibitory activity in stronger concentrations; details: MCF-7 cells in steroid-free medium, 7 days of culture, DNA analysis; compared with oestradiol at 10^-10M = 100% agonist activity
Source text: 1—Effect on the Proliferation of Mammary Cells The proliferative activity of the molecules is studied comparatively with that of oestradiol on the human mammary cells MCF-7 in culture. To highlight the agonist effect of oestradiol and/or the molecules tested, the culture medium for the maintenance of the cells (rich in growth factors and in steroids) is replaced by a more impoverished medium, amongst others lacking in steroids (DMEM supplemented by 5% of serum with steroid removed and without phenol red). The cells undergo this deprivation two days before the start of the trial. After 7 days of culture in the presence of the products to be studied, the cellular proliferation is evaluated by quantitive analysis of the DNA. In each trial, the effect of the oestradiol at 10^−10M (cellular growth in the presence of oestradiol less cellular growth in the presence of solvent) determines the agonist activity at 100%. The activity of the molecules is evaluated in comparison to this internal control. The molecules inducing a cellular growth identical to that observed with the solvent alone are classed “inactivated”, those inducing cellular growth lower than that observed with the solvent are classed “inhibitor”.

[2] = biological target: T1, recombinant human oestrogen receptor (Homo sapiens, UniProt P03372); assay: Affinity for the human oestrogen receptor (REH), displacement of tritiated oestradiol, relative affinity ARL; assay type: binding
T1 construct: comprising the coding region for the human oestrogen receptor of wild type; made in house; host or cells: SF9 insect cells (ATCC CRL1711), baculovirus
T1 sequence (P03372 1-595): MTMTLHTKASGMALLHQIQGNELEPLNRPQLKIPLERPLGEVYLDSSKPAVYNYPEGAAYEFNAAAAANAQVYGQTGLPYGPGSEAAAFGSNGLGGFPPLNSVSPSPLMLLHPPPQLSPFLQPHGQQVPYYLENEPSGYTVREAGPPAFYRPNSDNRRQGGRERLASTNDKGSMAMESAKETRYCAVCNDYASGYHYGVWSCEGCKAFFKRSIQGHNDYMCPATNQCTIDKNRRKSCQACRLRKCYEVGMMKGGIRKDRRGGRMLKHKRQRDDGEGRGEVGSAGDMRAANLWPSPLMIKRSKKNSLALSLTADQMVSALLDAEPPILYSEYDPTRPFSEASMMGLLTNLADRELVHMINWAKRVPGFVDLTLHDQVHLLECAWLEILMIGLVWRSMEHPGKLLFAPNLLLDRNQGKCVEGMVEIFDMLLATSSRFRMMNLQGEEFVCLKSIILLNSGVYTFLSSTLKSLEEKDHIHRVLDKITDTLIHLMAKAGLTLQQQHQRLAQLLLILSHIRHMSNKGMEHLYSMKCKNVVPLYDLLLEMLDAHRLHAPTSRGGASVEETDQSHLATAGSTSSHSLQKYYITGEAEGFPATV
Source text: 2—Affinity of the Human Oestrogen Receptor (REH)
A cytosolic extract of SF9 cells containing the recombinant human oestrogen receptor is obtained by over-expression in an insect-Baculo-viros system of cells, according to the general methodology described by N. R. WEBB et al. (Journal of Methods in cell and Molecular Biology, (1990) vol 2 n°4, 173-188) and whose application is described for the expression of human hormonal receptors, for example the human glucocorticoid receptor (G.SRINIVASAN et al. Molecular Endocrinology (1990) vol 4 n°2 209-216).
The BaculoGold Transfection Kit (PharMingen, reference 21000K) is used to generate the recombinant baculovirus containing the fragment of DNAc described in the expression vector HEGO by L. TORA et al. (The EMBO Journal (1989) vol 8 n°7 1981-1986) comprising the coding region for the human oestrogen receptor of wild type with glycine in position 400.
The recombinant virus obtained in this way is used to express the […] receptor in the cells of insects SF9 (ATCC CRL1711), according to the known methodology previously cited.
2×10^7 SF9 cells are cultivated in a 175 cm^2 “Falcon” flask in TNM-FH “SIGMA” medium supplemented with 10% of foetal calf serum (FCS) and 50 micrograms/ml of gentamycine. After infection then incubation at 27° C. for 40 to 42 hours, the cells are lysed in 1 ml of lyse buffer (Tris 20 mM-HCl pH8, EDTA 0.5 mM, DTT 2mM, Glycerol 20%, KCl 400 mM) by a freezing-defrosting cycle that is repeated twice more. The supernatant, containing the recombinant human oestrogen receptor is preserved in liquid nitrogen in 0.5 ml amounts.
The supernatant is incubated at 0° C. for 24 hours with a consistent concentration (T) of oestradiol tritiated in the presence of growing concentrations either of cold oestradiol (0-1000×10^−9M), or of cold product to be tested (0-25000×10^−9M). The concentration of linked triated oestradiol (B) is then measured in each incubation by the dextran carbon adsorption technique.
3—Calculation of the Affinity Relative to Linking (ARL)
The 2 following curves are plotted: the percentage of 100×B/BO linked tritiated hormone in comparison to the logarithm of the concentration of cold reference hormone or in comparison to the logarithm of the concentration of cold product tested.
The soundness of the following equation is determined:
B0=Concentration of the linked tritiated hormone in the absence of any cold product,
B=Concentration of the linked tritiated hormone in the presence of an X concentration of cold product,
Bmin=Concentration of linked tritiated hormone for an incubation of this tritiated hormone in concentration (T) in the presence of a large excess of cold reference hormone (1000×10^−9) for human receptor.
The intersections of the right angle I50 and the curves, make it possible to evaluate the concentration of cold reference hormone (CH) and the tested cold product (CX) which inhibit 50% of the bond of the tritiated hormone on the receptor.
The relative affinity of the link (ARL) of the tested product is determined by the equation: […]

[3] = incubation at 0° C. for 24 hours with tritiated oestradiol, ARL=100(CH)/(CX), oestradiol = 100

Structure (SMILES) | ACTIVITY (proliferative activity on MCF-7 cells) [1] | Relative affinity of the link (ARL), EH oestradiol = 100, 24 H [2, 3] | Relative affinity of the link (ARL), EH oestradiol = 100, 24 H [2]
CCN(CC)CCCc1ccc([C@H]2C[C@]3(C)[C@@H](O)CC[C@H]3[C@@H]3CCc4c(ccc(O)c4Cl)[C@H]32)cc1 [Example 12, 4-chloro-11β-[4-[3-(1-diethylamino)propyl]phenyl]-estra-1,3,5(10)-trien-3,17β-diol] | Inhibitor | 28 | 
C[C@]12CC[C@@H]3c4ccc(O)cc4CC[C@H]3[C@@H]1CC[C@@H]2O [Oestradiol, reference compound] | Agonist |  | 
C[C@]12C[C@H](c3ccc(CCCN4CCCC4)cc3)[C@@H]3c4ccc(O)cc4CC[C@H]3[C@@H]1CC[C@@H]2O [Example 7, 11β-[4-[3-(1-pyrrolidinyl)propyl]phenyl]-estra-1,3,5(10)-trien-3,17β-diol] | Inhibitor |  | 59
C[C@]12C[C@H](c3ccc(CCCN4CCCCC4)cc3)[C@@H]3c4ccc(O)c(Cl)c4CC[C@H]3[C@@H]1CC[C@@H]2O [Example 11, 4-chloro-11β-[4-[3-(1-piperidinyl)propyl]phenyl]-estra-1,3,5(10) -trien-3,17β-diol] | Mixed |  | 14
C[C@]12C[C@H](c3ccc(CCCN4CCCCC4)cc3)[C@@H]3c4ccc(O)cc4CC[C@H]3[C@@H]1CC[C@@H]2O [Example 9] | Inhibitor | 28 | 
CC1(O)CCC2C3CCc4cc(O)ccc4C3C(c3ccc(CCCN4CCCCC4)cc3)CC21C (stereo not drawn) [Example 13, 17α-methyl-11β-[4-[3-(1-piperidininyl)propyl]phenyl]-estra-1,3,5(10)-trien-3,17β-diol] | Inhibitor | 42 | 
